In test [1] the test system is leishmanial tubulin. The test is classed as biochemical. To be noted: mean ± SD of at least one duplicate measurement, SD of controls 27.6%. As to the method:
(§1) 2000, 110, 223-236, incorporated herein by reference.^14
Briefly, the tubulin assembly assays are performed as follows. […] The change in turbidity was measured at 351 nm using the SpectraMax Plus microplate reader immediately after GTP addition at 30° C. (for leishmanial tubulin) or 37° C. (for brain tubulin).

In test [2] the test system is L. donovani promastigotes. Put plainly: Growth inhibition of L. donovani promastigotes. The following applies: mean ± standard deviation of at least two independent measurements, read-out: IC50 vs. L. donovani promastigotes. The test is classed as cell-based, Leishmania donovani.
For test [3], the system named is Trypanosoma brucei brucei (MITat 1.2, variant 221). Put plainly: microbe, parasite or virus in culture. The following applies: read-out: IC50, T. b. brucei variant 221. The test is classed as cell-based. As to the method: (§2) Determination of the drug susceptibility of parasites and mammalian cells. The susceptibility of Leishmania donovani amastigote-like parasites (WHO designation: MHOM/SD/62/1S-CL2D) to growth inhibition by compounds of interest was measured in a three-day assay using the tetrazolium dye-based CellTiter reagent (Promega) (Werbovetz, K., Brendle, J., and Sackett, D. (1999) Mol. Biochem. Parasitol. 98, 53-65., and Havens, C., Bryant, N., Asher, L., Lamoreaux, L., Perfetto, S., Brendle, J., and Werbovetz, K. (2000) Mol. Biochem. Parasitol. 110, 223-236). The amastigote medium used in this assay is based on the medium mentioned by Joshi et al. (Joshi, M., Dwyer, D. M., and Nakhasi, H. L. (1993) Mol. Biochem. Parasitol. 58, 345-354). Prior to addition of fetal bovine serum to a final concentration of 20%, this amastigote medium contains 15 mM KCl, 115 mM KH2PO4, 10 mM K2HPO4, 0.5 mM MgSO4, 24 mM NaHCO3, a 1-concentration of RPMI-1640 vitamins and amino acids, 2.0 mM L-glutamine, 22 mM D-glucose, 100 units/mL penicillin, 100 ∝g/ml streptomycin, 0.1 mM adenosine, 1 ∝g/mL folate, and 25 mM MES (pH 5.5). Compounds were tested for their activity against bloodstream-form Trypanosoma brucei brucei (MITat 1.2, variant 221) axenically-cultured in HMI-9 medium , H., and Hirumi, K. (1989) J. Parasitol. 75, 985-989.) following the procedure of Ellis et al. (Ellis, J., Fish, W., Sileghem, M., and McOdimba, F. (1993) Vet. Parasitol. 50, 143-149.) with some modifications. Briefly, 100 μL of late log phase parasites were incubated in 96-well plates (Costar) at an initial concentration of 10^5 cells/ml with or without test compounds at 37° C. in a humidified 5% CO2 atmosphere for 72 hours. Twenty-five μL of a 5 mg/mL solution of MTT (prepared in phosphate buffered saline and filter sterilized) was then added to each well and plates were re-incubated at 37° C. as before for 2 h. One hundred ∝L of 20% SDS lysis buffer (prepared in 50% aqueous DMF) was added to each well and plates were incubated as before for an additional 3-4 h. Optical densities were then measured at 570 nm using SpectraMax Plus microplate reader. […] Assessment of the in vitro sensitivity of T. b. brucei Lab 110 EATRO and P. falciparum strains to compounds was performed by methods described in Donkor et al. (Donkor, I., Assefa, H., Rattendi, D., Lane, S., Vargas, M., Goldberg, B., and Bacchi, C. (2001) Eur. J. Med. Chem. 36, 531-538.) and Guan et al. (Guan, J., Kyle, D., Gerena, L., Zhang, Q., Milhous, W., and Lin, A. (2002) J. Med. Chem. 45, 2741-2748).

Test [4] has as its system L. donovani axenic amastigotes. Put plainly: Growth inhibition of L. donovani axenic amastigotes (three-day tetrazolium dye assay). The test is classed as cell-based, Leishmania donovani. As to the method: as §1, §2
In test [5] the test system is J774 murine macrophages. Put plainly: Toxicity to J774 macrophages (three-day CellTiter assay). The test is classed as cell-based. To be noted: read-out: IC50, J774 macrophages. As to the method:
The toxicity of compounds to J774 murine macrophages and PC3 […] cells was measured in a three-day assay using the CellTiter reagent. […] Macrophages were allowed to adhere for 24 hours, then the medium was removed and replaced with serial dilutions of the test compounds in the DMEM medium mentioned above without phenol red. After 72 hr incubation with the test compounds at 37° C. in a humidified 5% CO2 incubator, cell viability was determined using the CellTiter reagent by adding 20 μL of assay solution to each well. After a 6-7 h incubation at 37° C. to allow for color development, the absorbance of each well at 490 nm was measured in a SpectraMax Pro microplate reader (Molecular Devices). The toxicity of compounds to PC3 cells was assessed in the same manner as for the macrophages, except that the medium used was RPMI 1640 supplemented with 10% heat inactivated fetal calf serum, 2.0 mM L-glutamine, 50 units/mL penicillin, and 50 ∝g/mL streptomycin. IC50 values for the J774 and PC3 assays were determined with the software program SoftMax Pro as described earlier.

The mark [6] stands for this setting: unit inferred, three-day tetrazolium dye assay, read-out: IC50, L. donovani axenic amastigotes.
The mark [7] stands for this setting: Trypanosoma brucei, unit inferred.

Where two headings read alike, the source gives them in different places.

For `CCCN(CCC)c1c([N+](=O)[O-])cc(C(N)=NO)cc1[N+](=O)[O-]` [Compound 29], in test [1], the “% Inhibition of Leishmanial Tubulin Assembly at 20 μM Compound” value (from here on “% Inhibition”) was 35 ± 7%. In test [2], the IC50 is > 100 µM.
On to `CCCN(CCC)c1c([N+](=O)[O-])cc(S(=O)(=O)Nc2ccc(Cl)c(Cl)c2)cc1[N+](=O)[O-]` [Compound 44, N1-(3,4-Dichloro)phenyl-3,5-dinitro-N4,N4-di-n-propylsulfonilamide], for which the IC50 in test [3] (unit inferred) came out at 6.7 µM; in test [4] (setting [6]), 5.03 ± 0.8 µM; in test [5] (unit inferred), 7.19 ± 0.59 µM.
In the case of “N1-(3-Methyl)phenyl-3,5-dinitro-N4,N4-di-n-propylsulfonilamide [Compound 42]”, the IC50 amounted to 0.92 µM in test [3]; 22.7 ± 0.8 µM in test [4] (read-out: IC50, L. donovani axenic amastigotes); 15.8 ± 2.1 µM in test [5].
`Cc1ccc(C(=O)Nc2ccc(S(=O)(=O)O)c3cc(S(=O)(=O)O)cc(S(=O)(=O)O)c23)cc1NC(=O)c1cccc(NC(=O)Nc2cccc(C(=O)Nc3cc(C(=O)Nc4ccc(S(=O)(=O)O)c5cc(S(=O)(=O)O)cc(S(=O)(=O)O)c45)ccc3C)c2)c1` [Suramin, reference compound]: the IC50 in test [3] (setting [7]) came to 0.233 ± 0.05 µM.
Regarding `CCCN(CCC)c1c([N+](=O)[O-])cc(S(=O)(=O)NC(C)C)cc1[N+](=O)[O-]` [Compound 38, N1-Isopropyl-3,5-dinitro-N4,N4-di-n-propylsulfonilamide], the IC50 in test [3] (unit inferred) came out at 2.5 µM; in test [4] (setting [6]) it was 42.8 ± 2.3 µM.
With `CCCN(CCC)c1c([N+](=O)[O-])cc(S(=O)(=O)Nc2ccc(C)cc2)cc1[N+](=O)[O-]` [Compound 40, N1-(4Methyl)phenyl-3,5-dinitro-N4,N4-di-n-propylsulfonilamide], the IC50 was 10.5 µM in test [3] (unit inferred), 32.1 ± 12.7 µM in test [4] (setting [6]) and 10.5 ± 2 µM in test [5] (unit inferred).
For `N=C(N)c1ccc(OCCCCCOc2ccc(C(=N)N)cc2)cc1` [Pentamidine, reference compound], the IC50 was 1.61 ± 0.22 µM in test [2] (Leishmania donovani); 0.0194 ± 0.0069 µM in test [3] (setting [7]); 2 ± 0.06 µM in test [4] (Leishmania donovani, 72 h, unit inferred, three-day tetrazolium dye assay, read-out: IC50, L. donovani axenic amastigotes); 2 ± 0.06 µM in test [4] (Leishmania donovani, Table 1, mean ± standard deviation of at least two independent measurements, read-out: IC50 vs. L. donovani amastigotes).
Consider `CCCN(CCC)c1c([N+](=O)[O-])cc(S(=O)(=O)Nc2cccc(OC)c2)cc1[N+](=O)[O-]` [Compound 30, N1-(3-Methoxy)phenyl-3,5-dinitro-N4,N4-di-n-propylsulfonilamide], for which the IC50 in test [3] (unit inferred) amounted to 0.5 µM; in test [4] (setting [6]), 8.11 ± 3.33 µM; in test [5] (unit inferred) it was 25.3 ± 3.8 µM.
For `CCCN(CCC)c1c([N+](=O)[O-])cc(S(=O)(=O)N(C)C)cc1[N+](=O)[O-]` [Compound 34, N1,M1-Dimethyl-3,5-dinitro-N4,N4-di-n-propylsulfonilamide], the IC50 in test [3] (unit inferred) is 5.9 µM; in test [4] (setting [6]) it was > 100 µM.
`CCCN(CCC)c1c([N+](=O)[O-])cc(S(=O)(=O)Nc2ccc(Cl)cc2)cc1[N+](=O)[O-]` [Compound 41, N1-(4-Chloro)phenyl-3,5dinitro-N4,N4-di-n-propylsulfonilamide]: the IC50 was 9.5 µM in test [3] (unit inferred), 13.3 ± 3 µM in test [4] (setting [6]) and 9.13 ± 3.81 µM in test [5] (unit inferred).
The corresponding values for `CCN(CC)c1c([N+](=O)[O-])cc(S(=O)(=O)Nc2ccccc2)cc1[N+](=O)[O-]` [Compound 31, N1-Phenyl-3,5-dinitro-N4,N4-di-n-ethylsulfonilamide] are 1.9 µM, 10.6 ± 2.6 µM and 47.7 ± 1.6 µM.
Turning to `NS(=O)(=O)c1cc([N+](=O)[O-])c(N2CCCC2)c([N+](=O)[O-])c1` [Compound 19], in test [1], the “% Inhibition” value was found to be 57 ± 18%. In addition, the IC50 in test [2] was 97.1 ± 53 µM.
As for `CCCN(CCC)c1c([N+](=O)[O-])cc(S(=O)(=O)Nc2cc(Cl)cc(Cl)c2)cc1[N+](=O)[O-]` [Compound 45, N1-(3,5-Dichloro)phenyl-3,5-dinitro-N4,N4-di-n-propylsulfonilamide], the results for the IC50 in test [3] (unit inferred), in test [4] (setting [6]) and in test [5] (unit inferred) were 3.4 µM, 3.71 ± 0.91 µM and 5.12 ± 0.35 µM, respectively.
For the compound `CCCN(CCC)c1c([N+](=O)[O-])cc(C#N)cc1[N+](=O)[O-]` [Compound 27], in test [1], the “% Inhibition” value worked out at 25 ± 17%. Besides, the IC50 in test [2] was > 100 µM.
Take `CCCN(CCC)c1c([N+](=O)[O-])cc(S(=O)(=O)N(CC)CC)cc1[N+](=O)[O-]` [Compound 36, N1,N1-Diethyl-3,5-dinitro-N4,N4-di-n-propylsulfonilamide]: the results for the IC50 in test [3] (unit inferred) and in test [4] (setting [6]) were 10.2 µM and 26.7 ± 0.4 µM, respectively.
In the case of `CCCN(CCC)c1c([N+](=O)[O-])cc(S(=O)(=O)NCC)cc1[N+](=O)[O-]` [Compound 35, N1-Ethyl-3,5-dinitro-N4,N4-di-n-propylsulfonilamide], the figures for the IC50 in test [3] (unit inferred) and in test [4] (setting [6]) were 4 µM and > 100 µM, respectively.
For `CCCN(CCC)c1c([N+](=O)[O-])cc(S(=O)(=O)Nc2ccc(OC)cc2)cc1[N+](=O)[O-]` [Compound 39, N1-(4-Methoxy)phenyl-3,5-dinitro-N4,N4-di-n-Propylsulfonilamide], the results for the IC50 in test [3] (unit inferred), in test [4] (setting [6]) and in test [5] (unit inferred) were 20.5 µM, 31.9 ± 14.6 µM and 15.2 ± 6.7 µM, respectively.
Regarding `CCCN(CCC)c1c([N+](=O)[O-])cc(S(=O)(=O)NC)cc1[N+](=O)[O-]` [Compound 33, N1-Methyl-3,5-dinitro-N4,N4di-n-propylsulfonilamide], the IC50 in test [3] (unit inferred) is 4.6 µM; in test [4] (setting [6]) it was > 100 µM.
As for `CCCN(CCC)c1c([N+](=O)[O-])cc(S(=O)(=O)Nc2ccccn2)cc1[N+](=O)[O-]` [Compound 46, N1-(2-Pyridinyl)-3,5-dinitro-N4,N4-di-n-propylsulfonilamide], the IC50 in test [3] (unit inferred) was 10.9 µM; in test [4] (setting [6]), 59.7 ± 6.2 µM; in test [5] (unit inferred), 44.9 ± 16.3 µM.
For the compound `CCCN(CCC)c1c([N+](=O)[O-])cc(S(=O)(=O)Nc2cccc(Cl)c2)cc1[N+](=O)[O-]` [Compound 43, N1-(3-Chloro)phenyl-3,5-dinitro-N4,N4-di-n-propylsulfonilamide], the IC50 in test [3] (unit inferred) came out at 0.88 µM; in test [4] (setting [6]), 5.47 ± 0.1 µM; in test [5] (unit inferred), 8.67 ± 0.17 µM.
Regarding `CCCNc1c([N+](=O)[O-])cc(S(N)(=O)=O)cc1[N+](=O)[O-]` [Compound 13], the “% Inhibition” value in test [1] turned out to be 43 ± 19%. Besides, the IC50 in test [2] is 67 ± 18.4 µM.
Consider `CCCCN(CCCC)c1c([N+](=O)[O-])cc(S(=O)(=O)Nc2ccccc2)cc1[N+](=O)[O-]` [Compound 32, N1-Phenyl-3,5-dinitro-N4,N4-di-n-butylsulfonilamide], for which the results for the IC50 in test [3] (unit inferred), in test [4] (setting [6]) and in test [5] (unit inferred) were 0.1 µM, 2.57 ± 0.25 µM and 11.9 ± 0.5 µM, respectively.

What is called IC50 is the concentration needed to halve the response being measured.

Source of the values: patent US20050227982A1, “Antileishmanial dinitroaniline sulfanomides with activity against parasite tubulin” (priority 2002, published 2005).
